# Values joined by “and” are separate entries in the source; they are usually repeats but may differ in a detail not shown here. Equal entries are not always repeated. Inconclusive results and toxic doses are left out.
# Tested on: P388 leukemia ip, CD2F1 mice, survival T/C
# Experiment: NCI In Vivo Anticancer Drug Screen. Data for tumor model P388 Leukemia (intraperitoneal) in CD2F1 (CDF1) mice
# Conditions: endpoint: median survival time, higher = longer survival
# Summary of the method: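 Mice carrying the transplanted tumor received test compound or vehicle. Survival was recorded in each group, and the value is the treated-group measurement divided by that of the vehicle-treated control group.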
# [1] = dose: 25.0 mg/kg/injection, schedule: Q04DX003 (ip), vehicle: saline with Tween-80
# [2] = dose: 50.0 mg/kg/injection, schedule: Q04DX003 (ip), vehicle: saline with Tween-80
# [3] = dose: 100.0 mg/kg/injection, schedule: Q01DX009 (ip), vehicle: saline with Tween-80
# [4] = dose: 100.0 mg/kg/injection, schedule: Q04DX003 (ip), vehicle: saline with Tween-80
# [5] = dose: 50.0 mg/kg/injection, schedule: Q01DX009 (ip), vehicle: Klucel (hydroxypropylcellulose) (HPC)
# [6] = dose: 100.0 mg/kg/injection, schedule: Q01DX009 (ip), vehicle: Klucel (hydroxypropylcellulose) (HPC)
# [7] = dose: 200.0 mg/kg/injection, schedule: Q01DX009 (ip), vehicle: Klucel (hydroxypropylcellulose) (HPC)
# [8] = dose: 50.0 mg/kg/injection, schedule: Q01DX005 (ip), vehicle: saline with Tween-80
# [9] = dose: 100.0 mg/kg/injection, schedule: Q01DX005 (ip), vehicle: saline with Tween-80
# [10] = dose: 50.0 mg/kg/injection, schedule: Q01DX009 (ip), vehicle: saline with Tween-80
# [11] = dose: 50.0 mg/kg/injection, schedule: Q01DX005 (ip), vehicle: Klucel (hydroxypropylcellulose) (HPC)
# [12] = dose: 60.0 mg/kg/injection, schedule: Q01DX005 (ip), vehicle: saline with Tween-80
# [13] = dose: 100.0 mg/kg/injection, schedule: Q01DX005 (ip), vehicle: Klucel (hydroxypropylcellulose) (HPC)
# [14] = dose: 120.0 mg/kg/injection, schedule: Q01DX005 (ip), vehicle: saline with Tween-80
# [15] = dose: 200.0 mg/kg/injection, schedule: Q01DX005 (ip), vehicle: Klucel (hydroxypropylcellulose) (HPC)
# [16] = dose: 240.0 mg/kg/injection, schedule: Q01DX005 (ip), vehicle: saline with Tween-80
# [17] = dose: 200.0 mg/kg/injection, schedule: Q01DX005 (ip), vehicle: saline with Tween-80
# [18] = dose: 12.5 mg/kg/injection, schedule: Q01DX009 (ip), vehicle: saline
# [19] = dose: 25.0 mg/kg/injection, schedule: Q01DX009 (ip), vehicle: saline
# [20] = dose: 50.0 mg/kg/injection, schedule: Q01DX009 (ip), vehicle: saline
# [21] = dose: 200.0 mg/kg/injection, schedule: Q01DX009 (ip), vehicle: saline with Tween-80
compound,measurement,setting,value
Nc1nc(=S)c2[nH]c(=S)[nH]c2[nH]1,T/C,[1],118 % of control
same,T/C,[2],118 % of control
same,T/C,[3],118 % of control
same,T/C,[4],118 % of control
same,T/C,"dose: 264.0 mg/kg/injection, schedule: Q04DX003 (ip), vehicle: saline with Tween-80",150 % of control
same,T/C,"dose: 400.0 mg/kg/injection, schedule: Q01DX009 (ip), vehicle: saline with Tween-80",113 % of control
same,T/C,"dose: 600.0 mg/kg/injection, schedule: Q04DX003 (ip), vehicle: saline with Tween-80",150 % of control
O=C(O)C(=O)O.[Co].[NH-]CC[NH-].[NH-]CC[NH-],T/C,"dose: 12.5 mg/kg/injection, schedule: Q04DX002 (ip), vehicle: saline with Tween-80",100 % of control
same,T/C,"dose: 25.0 mg/kg/injection, schedule: Q04DX002 (ip), vehicle: saline with Tween-80",100 % of control
CSc1nc2ccc(N=Cc3ccc([N+](=O)[O-])cc3)cc2s1,T/C,[5],98 % of control
same,T/C,[6],86 % of control
same,T/C,[7],87 % of control and 92 % of control
C/C(=N\NS(=O)(=O)c1ccc(C)cc1)c1c(C)noc1C,T/C,[5],94 % of control
same,T/C,[6],99 % of control
same,T/C,[7],100 % of control
Cc1ccc(S(=O)(=O)N(O)c2ccc(C)cc2C)cc1,T/C,[8],112 % of control
same,T/C,[9],107 % of control
CC(=O)N1c2ccccc2Sc2cc(C(O)(C(F)(F)F)C(F)(F)F)ccc21,T/C,[1],95 % of control
same,T/C,[2],100 % of control
same,T/C,[4],100 % of control
O=C1C2C3C=CC(C2C(=O)N1CO)C1C2C(=O)N(CO)C(=O)C2C31 (configuration not stated),T/C,"dose: 12.5 mg/kg/injection, schedule: Q01DX009 (ip), vehicle: water",105 % of control
same,T/C,"dose: 25.0 mg/kg/injection, schedule: Q01DX009 (ip), vehicle: water",157 % of control
same,T/C,[10],195 % of control
same,T/C,"dose: 50.0 mg/kg/injection, schedule: Q01DX009 (ip), vehicle: water",208 % of control
O=c1ccnc(Nc2ccc[nH]c2=S)[nH]1,T/C,[11],100 % of control
same,T/C,[12],105 % of control
same,T/C,[13],99 % of control
same,T/C,[14],105 % of control
same,T/C,[15],93 % of control
same,T/C,[16],100 % of control
O=C1N=c2ccccc2=C1c1sc(=O)n(Cc2nc3ccccc3[nH]2)c1O,T/C,[11],102 % of control
same,T/C,[13],97 % of control
same,T/C,[15],93 % of control
O=C1NC2(CCCCC2)C(=O)N1CCCCCN(CCCl)CCCl,T/C,"dose: 1.5 mg/kg/injection, schedule: Q01DX005 (ip), vehicle: saline",111 % of control
same,T/C,"dose: 3.0 mg/kg/injection, schedule: Q01DX005 (ip), vehicle: saline",119 % of control
same,T/C,"dose: 40.0 mg/kg/injection, schedule: Q01DX005 (ip), vehicle: saline",160 % of control
CCC12OC(COc3ccccc3)CN1CCS2 (configuration not stated),T/C,[8],98 % of control
same,T/C,[9],107 % of control
same,T/C,[17],99 % of control
COC(=O)C1=CCC[C@H]2C1(C)CCC(C)C21CC(c2ccoc2)OC1=O (some centres not stated),T/C,"dose: 3.5 mg/kg/injection, schedule: Q01DX005 (ip), vehicle: Klucel (hydroxypropylcellulose) (HPC)",106 % of control
same,T/C,"dose: 7.0 mg/kg/injection, schedule: Q01DX005 (ip), vehicle: Klucel (hydroxypropylcellulose) (HPC)",91 % of control
same,T/C,"dose: 14.0 mg/kg/injection, schedule: Q01DX005 (ip), vehicle: Klucel (hydroxypropylcellulose) (HPC)",95 % of control
same,T/C,"dose: 28.0 mg/kg/injection, schedule: Q01DX005 (ip), vehicle: Klucel (hydroxypropylcellulose) (HPC)",91 % of control
same,T/C,[11],92 % of control
CC(=O)C1CCC2=C(C1)C(=O)c1cc3c(-c4ccccc4)oc(-c4ccccc4)c3cc1C2=O (configuration not stated),T/C,"dose: 7.5 mg/kg/injection, schedule: Q01DX005 (ip), vehicle: Klucel (hydroxypropylcellulose) (HPC)",87 % of control
same,T/C,"dose: 15.0 mg/kg/injection, schedule: Q01DX005 (ip), vehicle: Klucel (hydroxypropylcellulose) (HPC)",94 % of control
CCOC(=O)/C=C(\C)C(F)(F)F,T/C,"dose: 15.0 mg/kg/injection, schedule: Q01DX005 (ip), vehicle: saline with Tween-80",95 % of control
same,T/C,"dose: 30.0 mg/kg/injection, schedule: Q01DX005 (ip), vehicle: saline with Tween-80",100 % of control and 103 % of control
same,T/C,[12],98 % of control and 104 % of control and 94 % of control
same,T/C,[14],100 % of control and 101 % of control
same,T/C,[16],106 % of control and 111 % of control
COc1ccc(/C=C(\C(C)=O)C(=O)CCN(C)C)cc1,T/C,"dose: 50.0 mg/kg/injection, schedule: Q01DX005 (ip), vehicle: saline",95 % of control
same,T/C,"dose: 100.0 mg/kg/injection, schedule: Q01DX005 (ip), vehicle: saline",105 % of control
same,T/C,"dose: 200.0 mg/kg/injection, schedule: Q01DX005 (ip), vehicle: saline",115 % of control
C/C=C1\C(=O)O[C@@]23C=C[C@H]4C(C(=O)OC)=CO[C@@H](O[C@H]12)[C@H]43,T/C,"dose: 0.63 mg/kg/injection, schedule: Q01DX009 (ip), vehicle: Klucel (hydroxypropylcellulose) (HPC)",100 % of control
same,T/C,"dose: 0.63 mg/kg/injection, schedule: Q01DX009 (ip), vehicle: saline",98 % of control
same,T/C,"dose: 1.25 mg/kg/injection, schedule: Q01DX009 (ip), vehicle: Klucel (hydroxypropylcellulose) (HPC)",100 % of control
same,T/C,"dose: 1.25 mg/kg/injection, schedule: Q01DX009 (ip), vehicle: saline",98 % of control
same,T/C,"dose: 2.5 mg/kg/injection, schedule: Q01DX009 (ip), vehicle: Klucel (hydroxypropylcellulose) (HPC)",98 % of control
same,T/C,"dose: 2.5 mg/kg/injection, schedule: Q01DX009 (ip), vehicle: saline",100 % of control
same,T/C,"dose: 5.0 mg/kg/injection, schedule: Q01DX009 (ip), vehicle: Klucel (hydroxypropylcellulose) (HPC)",100 % of control
same,T/C,"dose: 5.0 mg/kg/injection, schedule: Q01DX009 (ip), vehicle: saline",98 % of control
same,T/C,"dose: 10.0 mg/kg/injection, schedule: Q01DX009 (ip), vehicle: saline",104 % of control
same,T/C,"dose: 20.0 mg/kg/injection, schedule: Q01DX009 (ip), vehicle: saline",113 % of control
Clc1ccc2ccc3ccccc3c2n1,T/C,[18],101 % of control
same,T/C,[19],102 % of control
same,T/C,[20],101 % of control and 94 % of control
O=C(O)CN(CC(=O)O)Cc1cc2c(cc1O)Oc1cc(O)c(CN(CC(=O)O)CC(=O)O)cc1C21OC(=O)c2ccccc21,T/C,[10],105 % of control
same,T/C,[3],101 % of control
same,T/C,[21],97 % of control
CC1=CC(S)NC(=S)N1 (configuration not stated),T/C,[12],101 % of control
same,T/C,[14],105 % of control
same,T/C,[16],102 % of control
C/C(N=NC(=S)N1CCSCC1)=C1\C=CC=CN1O,T/C,"dose: 12.5 mg/kg/injection, schedule: Q01DX005 (ip), vehicle: saline with Tween-80",97 % of control
same,T/C,"dose: 25.0 mg/kg/injection, schedule: Q01DX005 (ip), vehicle: saline with Tween-80",100 % of control
same,T/C,[8],107 % of control and 97 % of control
same,T/C,[17],102 % of control
CC(C)C1SCC(=O)N1c1nncs1 (configuration not stated),T/C,[12],103 % of control
same,T/C,[14],112 % of control
same,T/C,[16],107 % of control
COC(=O)/C(=C\c1ccncc1)c1cccc2ccccc12,T/C,"dose: 25.0 mg/kg/injection, schedule: Q01DX009 (ip), vehicle: saline with Tween-80",101 % of control
same,T/C,[10],98 % of control
same,T/C,[3],104 % of control
same,T/C,[21],99 % of control
N#CNC(=S)SCC(N)=O,T/C,[11],100 % of control
same,T/C,[13],100 % of control
same,T/C,[15],102 % of control
CN1CCC(=C2c3ccccc3Oc3ncccc32)CC1,T/C,[18],102 % of control
same,T/C,[19],111 % of control
same,T/C,[10],102 % of control
same,T/C,[20],99 % of control
C[C@]12C=CC(=O)C[C@@H]1CC[C@@H]1[C@@H]2C(=O)C[C@]2(C)C(=O)CC[C@@H]12,T/C,[4],108 % of control
same,T/C,"dose: 200.0 mg/kg/injection, schedule: Q04DX003 (ip), vehicle: saline with Tween-80",91 % of control
same,T/C,"dose: 400.0 mg/kg/injection, schedule: Q04DX003 (ip), vehicle: saline with Tween-80",108 % of control
NC(=O)c1cc(C(Cl)Cl)ccn1,T/C,"dose: 60.0 mg/kg/injection, schedule: Q01DX005 (ip), vehicle: Klucel (hydroxypropylcellulose) (HPC)",100 % of control
same,T/C,"dose: 120.0 mg/kg/injection, schedule: Q01DX005 (ip), vehicle: Klucel (hydroxypropylcellulose) (HPC)",99 % of control
same,T/C,"dose: 240.0 mg/kg/injection, schedule: Q01DX005 (ip), vehicle: Klucel (hydroxypropylcellulose) (HPC)",93 % of control

# Source: PubChem BioAssay AID330 (DTP/NCI, 2004)
